In ChEMBL document CHEMBL1128683, “Identification of 3,5-dihydro-2-aryl-1H-pyrazolo[3,4-c]quinoline-1,4(2H)-diones as novel high-affinity glycine site N-methyl-D-aspartate antagonists” (J Med Chem, 1995) one finds IC50 data, which are given here for ten compounds.

The target in the experiment is Glutamate receptor ionotropic, NMDA 1 (Rattus norvegicus, UniProt P35439). Kind of experiment: Inhibition of [3H]-3 binding to the glycine site on the NMDA receptor in Rat cortical membranes.
In general, IC50 refers to the concentration that gives 50% inhibition. A higher IC50 goes with lower potency. Consider `O=c1[nH]c2ccccc2c2c(=O)n(-c3cccc(Cl)c3)[nH]c12`, for which the IC50 stood at 0.162 µM.

The compound `O=c1[nH]c2ccccc2c2c(=O)n(-c3ccccc3)[nH]c12` came in with an IC50 of 0.135 µM.

As to `COc1ccc(-n2[nH]c3c(=O)[nH]c4ccccc4c3c2=O)cc1`, the concentration for half-maximal inhibition (IC50) worked out at 0.087 µM.

`O=c1[nH]c2ccccc2c2c(=O)n(-c3ccccc3Cl)[nH]c12` displayed an IC50 of 0.613 µM.

In turn, `Cn1[nH]c2c(=O)[nH]c3ccccc3c2c1=O` gave a half-maximal inhibitory concentration (IC50) of 2.02 µM.

The compound `O=c1[nH]c2ccccc2c2c(=O)n(-c3ccc(Cl)cc3)[nH]c12` registered a half-inhibitory concentration (IC50) of 0.138 µM.

Take `COc1ccc(-n2[nH]c3c(=O)[nH]c4cc(Cl)ccc4c3c2=O)cc1`: the IC50 came to 0.0033 µM.

Regarding `Cn1c2c(=O)[nH]c3ccccc3c2c(=O)n1-c1ccccc1`, the IC50 was over 0.1 µM.

For the compound `O=c1[nH]c2ccccc2c2c(=O)n(Cc3ccccc3)[nH]c12`, the 50% inhibitory concentration (IC50) is 0.562 µM.

The compound `O=c1[nH]c2cc(Cl)ccc2c2c(=O)n(-c3ccccc3)[nH]c12` gave a half-inhibitory concentration (IC50) of 0.016 µM.
